From patent US9950067B2, “Trans carotenoids, their synthesis, formulation and uses” (Diffusion Pharmaceuticals, LLC, priority 2005, dated 2018)
“And” between values parts separate entries of the source, which are not always exact repeats. Identical values can stand only once. “Also recorded” adds a separate entry of the source. Like-named read-outs stand apart in the source and are kept apart here.

What was measured:
[1] = Solubility in water and aqueous formulations; assay type: physicochemical
Method: Formulation of TSC with Cyclodextrin-Mannitol • 1. Make up a solution containing equal-molar concentrations of the cyclodextrin and the TSC. Solutions containing over 20 mg TSC/ml of solution can be made this way. First, add the cyclodextrin to an injectable water, then add the TSC to that solution. • 2. Add d-mannitol, so that the final concentration is around 20 to 50 mg/ml of mannitol in solution. • 3. This solution can be added to isotonic saline in order to dilute it and still maintain the proper osmolality. Either add the solution to saline or add saline to the solution.
Formulation of TSC with Mannitol/Acetic Acid • 1. Make up a 0.01 M acetic acid solution in distilled water. • 2. […] Add the 0.0005 M acetic acid solution, slowly, to TSC. […] Add d-mannitol to above solution at a concentration of 50 mg/ml in order to obtain the proper osmolality. The pH of this solution is around 8 to 8.5. It should be close to being an isotonic solution, and, as such, can be injected directly into the blood stream.

[2] = system: HCT116 human colon carcinoma tumors; test: Radiation sensitization of tumors grown on mice
Method: There were six study groups of five mice per group (for a total of 30 mice) designated Study Groups 1 through 6. All mice in the study were injected intravenously with either a TSC dose or a saline control for five successive days. As shown below, Study Groups 1, 2 and 3 received TSC doses A, B and C, which corresponds to 0.07, 0.14 and 0.28 mg/kg respectively for the study B, and 1.35, 0.54 and 0.18 mg/kg respectively for the study A.
Group 4 was injected as a saline control. At 45 minutes post-injection on each of the five successive days, the tumors of Study Groups 1-4 received 2 Gy irradiation. Study Group 5 received TSC only and Study Group 6 received saline only, and neither Study Group 5 nor 6 received irradiation. Tumor volumes in all Study Groups were measured weekly for the earlier of 4 weeks or until the tumors reached 4 times the volume at the start of treatment.

[3] = Intramuscular administration, absorption into the blood stream; assay type: in vivo, rats
Method: TSC is not absorbed via an intramuscular route when simply dissolved in de-ionized water; however, the addition of a cyclodextrin (as in the formulated drug product) results in absorption into the blood stream. Small volumes (0.05 mL) were injected into each thigh muscle of rats with TSC formulated with 2-hydroxypropyl-β-cyclodextrin or γ-cyclodextrin and dissolved in water.

[4] = Preclinical study of myocardial infarction; assay type: in vivo; conditions: injected intravenously
[5] = Pulmonary administration, absorption into the blood stream; assay type: in vivo, rats
Method: In this method, the rats were intubated and a small volume (0.1 mL usually) of the TSC solution was injected followed by two 3-mL puffs of air.
Additional studies have been done with pulmonary dosing in which the effect of the volume of liquid injected into the trachea as well as using TSC in its formulated drug product form were investigated. The formulated drug product contained 8% γ-cyclodextrin, 2.3% mannitol and 50 mM glycine and 20 mg/mL TSC, reconstituted in sterile water. Sterile saline (0.9%) was added as a diluent in these studies in order to achieve the desired dosages. The same dose (937 μg/kg) was administered to all rats.

[6] = system: rats subjected to hemorrhagic shock; test: Treatment of hemorrhagic shock; assay type: in vivo; conditions: for treatment of hemorrhagic shock: rats
[7] = Oral administration, plasma concentrations; assay type: in vivo, rats; conditions: with γ-cyclodextrin
Method: PE-50 tubing was used to deliver formulated TSC into the stomachs of rats, and plasma concentrations were measured after that. Rats were fasted for 24 hours prior to each experiment. Water was given ad libitum and coprophagy was prevented by using cages with wire-mesh floors. One study involved rats that were allowed food ad libitum after TSC administration and another study involved rats in which food was withheld after TSC administration.

[8] = Stability of TSC in formulation versus pH; conditions: aqueous formulation
[9] = natural bipolar carotenoids, background; cited from earlier work
[10] = pulmonary, formulated drug product, 937 μg/kg

CCOC(=O)/C(C)=C/C=C/C(C)=C/C=C/C=C(C)/C=C/C=C(\C)C(=O)OCC [Compound E, Diethyl 2,6,11,15-Tetramethyl-hexadeca-2E,4E,6E,8E,10E,12E,14E-heptaene-1,16-diotate]
solubility ([1]; in water and in THF): poorly soluble

CC(/C=C/C=C(\C)C(=O)[O-])=C\C=C\C=C(C)\C=C\C=C(/C)C(=O)[O-].[Na+].[Na+] [TSC, trans sodium crocetinate]
optimal dosage ([2]; Study A, i.v. 5 days, 2 Gy irradiation 45 minutes post-injection): 0.18 mg/kg
dosages that worked equally well ([2]; Study B, i.v. 5 days, 2 Gy irradiation 45 minutes post-injection): 0.07 mg/kg and 0.14 mg/kg
effect on tumor growth ([2]; TSC alone, no irradiation, FIG. 3): does not appreciably affect tumor growth
bioavailability ([3]; rat, plasma, im, 3347 μg/kg body weight, rats, intramuscular 3347 μg/kg with 14 mg 2-hydroxypropyl-β-cyclodextrin per kg): 27%
peak plasma TSC concentration ([3]; rats, intramuscular 3347 μg/kg with 14 mg 2-hydroxypropyl-β-cyclodextrin per kg): 4.8 µg/mL
absorption via intramuscular route ([3]; simply dissolved in de-ionized water): not absorbed
absorption via intramuscular route ([3]; with γ-cyclodextrin): successful absorption into the systemic circulation; also recorded: absorbed into the blood stream
effect on ventricular fibrillation [4]: prevented ventricular fibrillation
pulmonary absorption without cyclodextrin ([5]; TSC in pH'd di-water): successful absorption into the blood stream
effect of larger injection volume of the same dose on bioavailability ([5]; pulmonary, 937 μg/kg): greater bioavailability
effect of γ-cyclodextrin on absorption into the systemic circulation [5, 10]: enhances absorption
effect of γ-cyclodextrin on plasma clearance [5, 10]: increasing plasma clearance
time to reach the maximum plasma concentration ([5]; rats, pulmonary): < 5 min
effect on tachycardia ([6]; rats subjected to hemorrhagic shock): reduce tachycardia
treatment of hemorrhagic shock ([6]; intramuscular injection): successfully treated
treatment of hemorrhagic shock ([6]; pulmonary route): successfully treated
effect of γ-cyclodextrin on oral absorption [7]: enhances absorption
solubility ([1]; 0.0005 M acetic acid solution, aqueous buffer, thermodynamic from solid, read-out: Maximum solubility): 6000 to 6500 µg/mL
dissolution in acetic acid ([1]; 0.001 M acetic acid): doesn't dissolve
TSC content of aqueous solution ([1]; TSC and gamma-cyclodextrin): ≤ 44 milligrams of TSC per ml of solution
TSC content of solution ([1]; formulated with cyclodextrin and mannitol): over 20 mg TSC/ml of solution
solubility in water ([1]; water): soluble in water
stability versus pH [8]: more stable at higher pHs

CC(/C=C/C=C(\C)C(=O)O)=C\C=C\C=C(C)\C=C\C=C(/C)C(=O)O [crocetin]
solubility in water [9]: only sparingly soluble in water

CC(/C=C/C=C(\C)C(=O)O[C@@H]1O[C@H](CO[C@@H]2O[C@H](CO)[C@@H](O)[C@H](O)[C@H]2O)[C@@H](O)[C@H](O)[C@H]1O)=C\C=C\C=C(C)\C=C\C=C(/C)C(=O)O[C@@H]1O[C@H](CO[C@@H]2O[C@H](CO)[C@@H](O)[C@H](O)[C@H]2O)[C@@H](O)[C@H](O)[C@H]1O [crocin]
solubility in water [9]: significant solubility in water
